Laboratory results: publication PMC10781691, “Vertical pathway inhibition of receptor tyrosine kinases and BAD with synergistic efficacy in triple negative breast cancer” (NPJ Precision Oncology, 2024)
Like-named read-outs stand apart in the source and are kept apart here.

Assays:
VEGFR2 = details: ref SelleckChem; read-out: IC50 VEGFR2; cited from earlier work
c-Met = details: cited from earlier work
Flt-3 = test system: Flt-3; set-up: method as in SelleckChem; details: ref SelleckChem; cited from earlier work
Ron = test system: Ron; set-up: method as in SelleckChem; details: ref SelleckChem; cited from earlier work
Axl = test system: Axl; set-up: method as in SelleckChem; details: ref SelleckChem; cited from earlier work
[1] = test system: BAD phosphorylation at Ser99; assay: Western blot of BAD phosphorylation at Ser99 in TNBC cells; type: cell-based, human; details: MDA-MB-231 and BT549 cells, 1 μM
MDA-MB-231 xenografts = assay: Orthotopic xenograft, combination study; type: in vivo, BALB/c-nude mice
Method: (§1) In vivo bioluminescent imaging was performed to determine the incidence and metastatic burden of luciferase-labeled 4T1 cells. Mice were injected i.p. with 10 mg/ml of D-luciferin (Gold Biotechnology, MO, USA) and imaged using a PerkinElmer IVIS Spectrum system. PDX were generated as previously described by transplanting fresh fragments orthotopically into 8-week-old female nonobese diabetic (NOD)/severe combined immunodeficient (SCID) mice (Beijing Vital River Laboratory Animal Technology Co., Beijing, China) (P1, passage 1)[40]. The P1 xenografts were then fragmented, digested into single-cell suspension and implanted into mammary fat pad (100 μL PBS containing growth factor reduced 50% Matrigel) of NOD/SCID mice. Once orthotopic xenografts reached an approximate size of 100 mm^3, the mice were randomly divided into three groups (n = 8) for single drug studies and six groups (n = 6) for combination studies and Kaplan-Meier (KM) analyses. […] Animal body weight and xenograft size were measured daily using an electronic balance and a digital caliper, respectively. Xenograft volume (mm^3) was calculated by using the formula: 0.52 × length × [width]^2. Complete response (CR) was achieved if the average xenograft volume for the treatment group was unable to be determined for two or more consecutive measurements. Partial response (PR) was achieved if the average xenograft volume reduced to <50 mm^3 for two or more consecutive measurements. After 3-week drug treatment, all mice were sacrificed by CO2 inhalation. Tumor and vital organs were weighed and isolated for further analysis. IHC analysis of xenograft histology sections and quantitative polymerase chain reaction (qPCR) were performed as previously described.
Data represent means ± SD. *P < 0.05, **P < 0.01, and ***P < 0.001.
Data represent means ± SD (n=6). *P < 0.05, **P
< 0.01, and ***P < 0.001.
Abbreviations: ALT/GOT, alanine
aminotransferase/ glutamic oxaloacetic transaminase; AST/GPT, aspartate aminotransferase/
glutamic pyruvic transaminase; CREA, creatinine; UREA, urea; and ALB, albumin. Data
represent means ± SD. *P < 0.05, **P < 0.01, and ***P < 0.001.

4T1-luciferase cells = details: 4T1-luciferase metastasis model
Method: Since metastasis is the primary contributor to mortality and poor prognosis for TNBC patients, the therapeutic potential of NCK, TKIs or combined NCK-TKI treatment on TNBC metastasis was further evaluated with an experimental lung metastasis model.
as §1, with “described. […] For PDX, xenograft growth was monitored daily by measurement of the xenograft volume until mice humane endpoint ( ~ 1000 mm^3).” for “described.”
luciferase cell generated metastasis model. Scale bar, 20 µm. (C) Animal weight of each
treatment group was indicated. (D) Changes in relative lung, liver, spleen, heart and kidney
(CRI) or combinations during the study at day 9.

USTC-0 PDX = assay: TNBC patient-derived xenograft; type: in vivo, NOD/SCID mice
Method: (§2) The effect of drug treatments on two patient-derived xenograft (PDX) models of TNBC, USTC-0 and USTC-1 were next examined. The use of the USTC-1 PDX was previously reported.
as §1, with “described. […] For PDX, xenograft growth was monitored daily by measurement of the xenograft volume until mice humane endpoint ( ~ 1000 mm^3).” for “described.”

USTC-1 PDX = assay: TNBC patient-derived xenograft; type: in vivo, NOD/SCID mice
Method: as §2
as §1, with “described. […] For PDX, xenograft growth was monitored daily by measurement of the xenograft volume until mice humane endpoint ( ~ 1000 mm^3).” for “described.”

[2] = test system: MAPK and PI3K/AKT pathways; assay: Western blot of PI3K/AKT and MAPK pathway proteins; type: cell-based, human
Method: Next, western blot analyses were performed to determine potential alteration in expression or activity of the target proteins along the MAPK and PI3K/AKT pathways. […] . […] CI analysis method.

MDA-MB-231 cells = assay: Foci formation (crystal violet); details: MDA-MB-231, 5 μM each
BT549 cells = assay: Foci formation (crystal violet); details: BT549, 5 μM each
Src = test system: Src; set-up: method as in SelleckChem; details: ref SelleckChem; cited from earlier work
MEK/ERK = test system: MEK/ERK; set-up: method as in SelleckChem; details: ref SelleckChem; cited from earlier work
ErbB2 = test system: ErbB2; set-up: method as in SelleckChem; details: ref SelleckChem; cited from earlier work
FGFR1 = details: read-out: IC50 FGFR1; ref SelleckChem; cited from earlier work
c-Kit = details: ref SelleckChem; read-out: IC50 c-Kit; cited from earlier work
Raf1 = test system: Raf1; set-up: method as in SelleckChem; details: ref SelleckChem; cited from earlier work
VEGFR3 = test system: VEGFR3; set-up: method as in SelleckChem; details: ref SelleckChem; cited from earlier work
PDGFR-β = test system: PDGFR-β; set-up: method as in SelleckChem; details: ref SelleckChem; cited from earlier work
Tie-2 = test system: Tie-2; set-up: method as in SelleckChem; details: ref SelleckChem; cited from earlier work

Nc1nccc(Oc2ccc(NC(=O)c3c[nH]cc(-c4ccc(F)cc4)c3=O)cc2F)c1Cl [BMS-794833]
IC50 (VEGFR2): 15 nM
IC50 (c-Met; ref SelleckChem, read-out: IC50 c-Met): 1.7 nM
IC50 (Flt-3): < 3 nM
IC50 (Ron): < 3 nM
IC50 (Axl): < 3 nM

C[C@@H](Oc1cc(-c2cnn(C3CCNCC3)c2)cnc1N)c1c(Cl)ccc(F)c1Cl [Crizotinib]
level of pBADSer99/BAD [1]: significantly decreased the level of pBADSer99/BAD
% Regression: Complete Response (100%) (MDA-MB-231 xenografts; MDA-MB-231 xenograft, day 21): 17%
% Regression: Partial Response (>50%) (MDA-MB-231 xenografts; MDA-MB-231 xenograft, day 21): 17%
% Regression: Disease Progression (MDA-MB-231 xenografts; MDA-MB-231 xenograft, day 21 (xenograft volume >100 mm^3)): 66%
complete regression of xenografts (MDA-MB-231 xenografts; day 21, NCK 20 mg/kg q.d., OSI-930 20 mg/kg q.d., Crizotinib 50 mg/kg b.i.w.): 16.67%
lung metastases (bioluminescent signals) vs control (4T1-luciferase cells): significantly abrogated lung metastases
PDX xenograft volume (USTC-0 PDX; USTC-0, 21 days treatment): significantly reduced the xenograft volume
survival of PDX-bearing mice (USTC-0 PDX; USTC-0, single agents vs vehicle, combinations vs OSI-930 or Crizotinib alone): markedly extended the survival
Median survival (USTC-0 PDX; USTC-0, vehicle 25.5): 34.5 days
PDX xenograft volume (USTC-1 PDX; USTC-1, 21 days treatment): significantly reduced the xenograft volume
Median survival (USTC-1 PDX; USTC-1, vehicle 22.5): 27.0 days
phosphorylated and total proteins of MAPK and PI3K/AKT pathways ([2]; BT549, 1 μM): significantly reduced the level of p-AKT (Ser473)/AKT
phosphorylated and total proteins of MAPK and PI3K/AKT pathways ([2]; MDA-MB-231, 1 μM): significantly inhibited the PI3K/AKT pathway
2D foci formation (MDA-MB-231 cells): significantly attenuated the capacity for foci formation
2D foci formation (BT549 cells): significantly attenuated the capacity for foci formation

CCOc1cc2ncc(C#N)c(Nc3ccc(F)c(Cl)c3)c2cc1NC(=O)/C=C/CN(C)C [Pelitinib]
IC50 (Src): 282 nM
IC50 (MEK/ERK): 800 nM
IC50 (ErbB2): 1260 nM

Cc1ccc(C(=O)Nc2ccc(CN3CCN(C)CC3)c(C(F)(F)F)c2)cc1C#Cc1cnc2cccnn12 [Ponatinib]
IC50 (Src): 5.4 nM

CNC(=O)c1cc(Oc2ccc(NC(=O)Nc3ccc(Cl)c(C(F)(F)F)c3)cc2)ccn1 [Sorafenib]
IC50 (c-Kit): 68 nM
IC50 (Raf1): 6 nM

COc1ccc2cc(-c3nc(-c4ccc([S+](C)[O-])cc4)[nH]c3-c3ccncc3)ccc2c1 (centres unmarked) [Tie2 kinase inhibitor]
IC50 (Tie-2): 0.25 nM
